Test: Tissue biodistribution of 3H-KCPBL in mice
Format: in vivo
Settings: for Biodistribution, Bone / Biodistribution, Brain / Biodistribution, Heart / Biodistribution, Kidney / Biodistribution, Large Intestine / Biodistribution, Liver / Biodistribution, Lung / Biodistribution, Muscle / Biodistribution, Small Intestine / Biodistribution, Spleen / Biodistribution, Stomach: 100 mg/kg
Procedure: The objectives of these tests were to evaluate the pharmacokinetics of radiolabeled KCPBL when administered either perorally or intravenously to mice.
3H-KCPBL was prepared from the pure drug substance KCPBL by an exchange procedure using high specific activity tritiated water. The product was purified by reverse phase high performance liquid chromatography and then freeze-dried. Analysis was carried out on ^3 H-KCPBL reconstituted in water. Specific activity was not less than 185 GBg/mmol or 5 Ci/mmol and the molecular weight of the product is 258. HPLC analysis for purity was performed using a Zorbax C8 column (25 cm×4.6) eluting with water: acetonitrile (930:70).
In the mouse studies, 3H-KCPBL was dissolved in sterile pyrogen-free saline containing […] of non-radiolabeled KCPBL. The final concentration of the test article in an injection volume of 0.1 ml was 66.6 mcCi. One tenth ml was administered intravenously for plasma level and tissue biodistribution studies. Peroral dosages were prepared in a manner consistent with this approach.
Tissue samples were collected and assayed as described above. The tissues evaluated for KCPBL content at four and at 24 hours after test article administration were: heart, lung, kidney, liver spleen, muscle, bond, stomach, small intestine, large intestine and brain.

O=C1CCC(C2(O)C(=O)OC3C(O)COC32O)C1 (stereo not drawn) [KCPBL]
tissues with highest drug levels (4 h, intravenous): liver, gastrointestinal tract, and brain
tissues with highest drug levels (4 h, peroral): principally found in the kidneys and the gastrointestinal tract
tissues with highest drug levels (24 h, intravenous): muscle and brain demonstrated the highest levels
tissues with highest drug levels (24 h, peroral): the highest drug levels were found in muscle and brain
Biodistribution, Bone (intravenous, 4 hour): 12.77 ± 3.96 mcg/gm
Biodistribution, Brain (intravenous, 4 hour): 38.60 ± 16.90 mcg/gm
Biodistribution, Heart (intravenous, 4 hour): 10.45 ± 3.50 mcg/gm
Biodistribution, Kidney (intravenous, 4 hour): 11.72 ± 1.34 mcg/gm
Biodistribution, Large Intestine (intravenous, 4 hour): 65.57 ± 14.86 mcg/gm
Biodistribution, Liver (intravenous, 4 hour): 21.20 ± 4.78 mcg/gm
Biodistribution, Lung (intravenous, 4 hour): 2.60 ± 2.20 mcg/gm
Biodistribution, Muscle (intravenous, 4 hour): 31.97 ± 6.09 mcg/gm
Biodistribution, Small Intestine (intravenous, 4 hour): 58.50 ± 18.68 mcg/gm
Biodistribution, Spleen (intravenous, 4 hour): 0.95 ± 0.36 mcg/gm
Biodistribution, Stomach (intravenous, 4 hour): 23.79 ± 5.96 mcg/gm
Biodistribution, Bone (intravenous, 24 hour): 4.53 ± 0.86 mcg/gm
Biodistribution, Brain (intravenous, 24 hour): 34.80 ± 20.5 mcg/gm
Biodistribution, Heart (intravenous, 24 hour): 2.85 ± 1.23 mcg/gm
Biodistribution, Kidney (intravenous, 24 hour): 5.35 ± 3.66 mcg/gm
Biodistribution, Large Intestine (intravenous, 24 hour): 13.67 ± 9.3 mcg/gm
Biodistribution, Lung (intravenous, 24 hour): 1.32 ± 0.46 mcg/gm
Biodistribution, Muscle (intravenous, 24 hour): 120.90 ± 154.0 mcg/gm
Biodistribution, Small Intestine (intravenous, 24 hour): 9.62 ± 6.4 mcg/gm
Biodistribution, Spleen (intravenous, 24 hour): 0.71 ± 0.23 mcg/gm
Biodistribution, Stomach (intravenous, 24 hour): 10.36 ± 5.8 mcg/gm
Biodistribution, Liver (intravenous, 24 hour, SD: data not available): 25.7 mcg/gm
Biodistribution, Bone (peroral, 4 hour): 15.02 ± 13.6 mcg/gm
Biodistribution, Brain (peroral, 4 hour): 35.22 ± 1.64 mcg/gm
Biodistribution, Heart (peroral, 4 hour): 13.64 ± 4.98 mcg/gm
Biodistribution, Kidney (peroral, 4 hour): 63.57 ± 74.0 mcg/gm
Biodistribution, Large Intestine (peroral, 4 hour): 135.9 ± 32.5 mcg/gm
Biodistribution, Liver (peroral, 4 hour): 38.03 ± 5.0 mcg/gm
Biodistribution, Lung (peroral, 4 hour): 2.72 ± 0.38 mcg/gm
Biodistribution, Muscle (peroral, 4 hour): 40.81 ± 3.37 mcg/gm
Biodistribution, Small Intestine (peroral, 4 hour): 217.50 ± 267.6 mcg/gm
Biodistribution, Spleen (peroral, 4 hour): 1.73 ± 0.29 mcg/gm
Biodistribution, Stomach (peroral, 4 hour): 110.00 ± 118.0 mcg/gm
Biodistribution, Bone (peroral, 24 hour): 10.30 ± 4.72 mcg/gm
Biodistribution, Brain (peroral, 24 hour): 47.30 ± 33.0 mcg/gm
Biodistribution, Heart (peroral, 24 hour): 5.13 ± 3.37 mcg/gm
Biodistribution, Kidney (peroral, 24 hour): 10.28 ± 5.58 mcg/gm
Biodistribution, Large Intestine (peroral, 24 hour): 21.42 ± 4.39 mcg/gm
Biodistribution, Liver (peroral, 24 hour): 11.84 ± 9.58 mcg/gm
Biodistribution, Lung (peroral, 24 hour): 3.73 ± 3.49 mcg/gm
Biodistribution, Muscle (peroral, 24 hour): 188.5 ± 124.0 mcg/gm
Biodistribution, Small Intestine (peroral, 24 hour): 24.45 ± 5.3 mcg/gm
Biodistribution, Spleen (peroral, 24 hour): 1.71 ± 0.16 mcg/gm
Biodistribution, Stomach (peroral, 24 hour): 25.72 ± 15.0 mcg/gm

— patent US5098933A, “Pharmaceutically useful Michael addition products of unsaturated aldehydes and ketones and ascorbic acid” (Theracel Corporation, priority 1990, dated 1992)
